Molecules are shown by their SMILES. Where two headings read alike, the source gives them in different places.

Three compounds from patent publication EP0285356A2, “Dopamine-beta-hydroxylase inhibitors” (SMITHKLINE BECKMAN CORPORATION, priority 1987, dated 1988) can be followed below.

Assay [1] addresses T1, dopamine-β-hydroxylase (DBH) (Homo sapiens, UniProt P09172).
T1 sequence (P09172 1-617): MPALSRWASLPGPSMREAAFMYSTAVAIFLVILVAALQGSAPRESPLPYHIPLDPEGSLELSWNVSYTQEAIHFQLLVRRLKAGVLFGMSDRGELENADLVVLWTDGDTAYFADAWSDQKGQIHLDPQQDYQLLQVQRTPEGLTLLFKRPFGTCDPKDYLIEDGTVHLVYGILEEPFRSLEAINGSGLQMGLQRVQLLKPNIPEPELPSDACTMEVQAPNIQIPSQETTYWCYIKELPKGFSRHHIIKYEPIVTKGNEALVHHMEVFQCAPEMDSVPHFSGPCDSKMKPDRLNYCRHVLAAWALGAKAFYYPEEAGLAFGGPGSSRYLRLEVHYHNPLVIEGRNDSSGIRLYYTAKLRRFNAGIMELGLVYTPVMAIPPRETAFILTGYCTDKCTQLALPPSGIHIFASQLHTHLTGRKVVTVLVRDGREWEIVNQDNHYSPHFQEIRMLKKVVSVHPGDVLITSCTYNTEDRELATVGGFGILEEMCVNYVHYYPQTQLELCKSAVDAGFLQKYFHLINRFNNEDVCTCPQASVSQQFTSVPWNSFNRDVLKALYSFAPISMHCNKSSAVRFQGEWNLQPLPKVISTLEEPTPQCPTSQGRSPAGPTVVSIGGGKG
The assay can be described thus: in vitro DBH inhibition, conversion of tyramine to octopamine in the presence of DBH. The class given is biochemical. Here is the method: Listed in Table I are the compounds of the invention that were tested for in vitro DBH inhibition by a standard procedure for assaying conversion of tyramine to octopamine in the presence of DBH. J. J. Pisano, et al., Biochem. Biophys, Acta, 43, 566-568 (1960). Octopamine was assayed following sodium periodate oxidation to p-hydroxybenzaldehyde by measuring spectrophotometric absorbance at 330 nm. In Table I, inhibition is given in micromolar concentration of compound at which DBH activity was halved (IC₅₀).

Assay [2] concerns spontaneously hypertensive rats. The assay can be described thus: mean arterial blood pressure in spontaneously hypertensive rats. The class given is in vivo. The note with it: 50 mg/kg intraperitoneally, compared to vehicle-treated controls, approximate. Here is the method:
Further, spontaneously hypertensive rats were treated with a suspension or solution of 1-(2-furanylmethyl)imidazole-2-thiol at a dose of 50 mg/kg intraperitoneally, and mean arterial blood pressure was monitored for 260 minutes using indwelling cannulae in the tail arteries. […] Maximal blood pressure reduction was approximately 50 to 55 mm Hg.

Where [3] appears, read: concentration of compound at which DBH activity was halved, tyramine to octopamine, absorbance at 330 nm, read-out: DBH IC50.

Take `Sc1nccn1Cc1ccco1` [1-(2-furanylmethyl)imidazole-2-thiol]: the IC50 in assay [1] (setting [3]) is 56 µM. Also, the “time after treatment to significant blood pressure reductions” value in assay [2] was no more than 30 min.

With `Sc1nccn1Cc1ccoc1` [1-(3-furanylmethyl)imidazole-2-thiol], in assay [1] (setting [3]), the concentration for half-maximal inhibition (IC50) was found to be 36 µM.

For `CCCCc1ccc(C(=O)O)nc1` [fusaric acid, reference compound], in assay [1], the 50% inhibitory concentration (IC50) was determined as 0.8 µM.
